The text below walks through data of patent publication US5916905A, “2,3-substituted pyridines for the treatment of inflammation” (G. D. Searle & Co., priority 1997, dated 1999).

Test [1] deals with T1, COX-2 (Mus musculus, UniProt Q05769).
T1 construct: A 2.0 kb fragment containing the coding region; made in house; host or cells: SF9 insect cells (baculovirus, pVL1393)
T1 sequence (Q05769 18-604): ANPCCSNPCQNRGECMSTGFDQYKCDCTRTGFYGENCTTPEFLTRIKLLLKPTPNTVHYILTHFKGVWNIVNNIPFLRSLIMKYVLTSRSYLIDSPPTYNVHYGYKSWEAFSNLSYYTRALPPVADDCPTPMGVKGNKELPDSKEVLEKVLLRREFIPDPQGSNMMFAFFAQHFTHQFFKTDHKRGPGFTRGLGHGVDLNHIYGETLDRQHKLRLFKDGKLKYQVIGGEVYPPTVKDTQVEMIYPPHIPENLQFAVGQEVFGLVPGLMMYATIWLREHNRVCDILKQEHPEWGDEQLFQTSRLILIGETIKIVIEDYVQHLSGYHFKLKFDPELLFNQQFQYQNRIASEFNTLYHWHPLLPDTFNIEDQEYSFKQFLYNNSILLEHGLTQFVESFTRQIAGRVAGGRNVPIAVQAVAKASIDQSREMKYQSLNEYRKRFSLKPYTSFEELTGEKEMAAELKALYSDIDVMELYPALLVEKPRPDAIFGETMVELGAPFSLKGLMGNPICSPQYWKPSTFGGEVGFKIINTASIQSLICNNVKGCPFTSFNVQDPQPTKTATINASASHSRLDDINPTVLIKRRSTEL
Put plainly: COX-2 activity in vitro, recombinant murine enzyme (PGE2 ELISA). The conditions noted are these: murine (m); 10 μM arachidonic acid, 10-20 min pre-incubation; read-out: COX-2 ID50. The class given is biochemical. As for the experimental part: (§1) The COX-2 inhibition activity of the compounds of this invention illustrated in the Examples was determined by the following methods.
(§2) Recombinant COX-1 and COX-2 were prepared as described by Gierse et al, [J. Biochem., 305, 479-84 (1995)]. A 2.0 kb fragment containing the coding region of either human or murine COX-1 or human or murine COX-2 was cloned into a BamH1 site of the baculovirus transfer vector pVL1393 (Invitrogen) to generate the baculovirus transfer vectors for COX-1 and COX-2 in a manner similar to the method of D. R. O'Reilly et al (Baculovirus Expression Vectors: A Laboratory Manual (1992)). Recombinant baculoviruses were isolated by transfecting 4 μg of baculovirus transfer vector DNA into SF9 insect cells (2×10^8) along with 200 ng of linearized baculovirus plasmid DNA by the calcium phosphate method. See M. D. Summers and G. E. Smith, A Manual of Methods for Baculovirus Vectors and Insect Cell Culture Procedures, Texas Agric. Exp. Station Bull. 1555 (1987). Recombinant viruses were purified by three rounds of plaque purification and high titer (10^7 -10^8 pfu/ml) stocks of virus were prepared. For large scale production, SF9 insect cells were infected in 10 liter fermentors (0.5×10^6 /ml) with the recombinant baculovirus stock such that the multiplicity of infection was 0.1. After 72 hours the cells were centrifuged and the cell pellet homogenized in Tris/Sucrose (50 mM: 25%, pH 8.0) containing 1% 3-[(3-cholamidopropyl)dimethylammonio]-1-propanesulfonate (CHAPS). The homogenate was centrifuged at 10,000×G for 30 minutes, and the resultant supernatant was stored at -80° C. before being assayed for COX activity.
(§3) b. Assay for COX-1 and COX-2 activity COX activity was assayed as PGE2 formed/μg protein/time using an ELISA to detect the prostaglandin released. CHAPS-solubilized insect cell membranes containing the appropriate COX enzyme were incubated in a potassium phosphate buffer (50 mM, pH 8.0) containing epinephrine, phenol, and heme with the addition of arachidonic acid (10 μM). Compounds were pre-incubated with the enzyme for 10-20 minutes prior to the addition of arachidonic acid. Any reaction between the arachidonic acid and the enzyme was stopped after ten minutes at 37° C./room temperature by transferring 40 μl of reaction mix into 160 μl ELISA buffer and 25 μM indomethacin. The PGE2 formed was measured by standard ELISA technology (Cayman Chemical).

In test [2] the target is T2, COX-1 (Mus musculus, UniProt P22437).
T2 construct: A 2.0 kb fragment containing the coding region; made in house; host or cells: SF9 insect cells (baculovirus, pVL1393)
T2 sequence (P22437 27-602): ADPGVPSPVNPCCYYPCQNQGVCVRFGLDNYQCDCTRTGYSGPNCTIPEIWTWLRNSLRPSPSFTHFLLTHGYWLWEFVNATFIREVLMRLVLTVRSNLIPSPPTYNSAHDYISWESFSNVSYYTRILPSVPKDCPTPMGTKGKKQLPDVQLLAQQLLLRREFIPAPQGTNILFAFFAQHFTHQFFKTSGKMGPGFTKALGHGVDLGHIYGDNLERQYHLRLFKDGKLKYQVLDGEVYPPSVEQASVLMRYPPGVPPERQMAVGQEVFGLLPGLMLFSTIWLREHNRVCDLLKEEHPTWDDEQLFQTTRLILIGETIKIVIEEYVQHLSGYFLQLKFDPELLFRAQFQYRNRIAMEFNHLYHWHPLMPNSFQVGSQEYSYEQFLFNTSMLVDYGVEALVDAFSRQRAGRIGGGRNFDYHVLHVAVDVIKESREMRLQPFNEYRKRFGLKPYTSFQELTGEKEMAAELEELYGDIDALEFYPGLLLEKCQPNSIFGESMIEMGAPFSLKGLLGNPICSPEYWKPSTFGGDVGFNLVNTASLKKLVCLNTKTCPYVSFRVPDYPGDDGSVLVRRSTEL
The experiment in a line: COX-1 activity in vitro, recombinant murine enzyme (PGE2 ELISA). The conditions noted are these: murine (m); 10 μM arachidonic acid, 10-20 min pre-incubation; read-out: COX-1 ID50. The class given is biochemical. As for the experimental part:
as §1, §2, §3

For the next test, the system named is carrageenan foot edema. The experiment in a line: Rat Carrageenan Foot Pad Edema Test. Type of test: in vivo, rat (male Sprague-Dawley). The note with it: @ 10 mg/kg body weight, oral, 1 h before carrageenan; read 3 h after injection. As to the method:
Rat Carrageenan Foot Pad Edema Test
Male Sprague-Dawley rats were selected in each group so that the average body weight was as close as possible. Rats were fasted with free access to water for over sixteen hours prior to the test. […] One hour later a subplantar injection of 0.1 mL of 1% solution of carrageenan/sterile 0.9% saline was administered and the volume of the injected foot was measured with a displacement plethysmometer connected to a pressure transducer with a digital indicator. Three hours after the injection of the carrageenan, the volume of the foot was again measured.

Test [3] has as its target T3, COX-1 (Homo sapiens, UniProt P23219).
T3 construct: A 2.0 kb fragment containing the coding region; made in house; host or cells: SF9 insect cells (baculovirus, pVL1393)
The experiment in a line: COX-1 activity in vitro, recombinant human enzyme (PGE2 ELISA). Type of test: biochemical. The note with it: human (h); 10 μM arachidonic acid, 10-20 min pre-incubation; read-out: COX-1 ID50. As to the method:
as §1, §2, §3

In test [4] the target is T4, COX-2 (Homo sapiens, UniProt P35354).
T4 construct: A 2.0 kb fragment containing the coding region; made in house; host or cells: SF9 insect cells (baculovirus, pVL1393)
T4 sequence (P35354 18-604): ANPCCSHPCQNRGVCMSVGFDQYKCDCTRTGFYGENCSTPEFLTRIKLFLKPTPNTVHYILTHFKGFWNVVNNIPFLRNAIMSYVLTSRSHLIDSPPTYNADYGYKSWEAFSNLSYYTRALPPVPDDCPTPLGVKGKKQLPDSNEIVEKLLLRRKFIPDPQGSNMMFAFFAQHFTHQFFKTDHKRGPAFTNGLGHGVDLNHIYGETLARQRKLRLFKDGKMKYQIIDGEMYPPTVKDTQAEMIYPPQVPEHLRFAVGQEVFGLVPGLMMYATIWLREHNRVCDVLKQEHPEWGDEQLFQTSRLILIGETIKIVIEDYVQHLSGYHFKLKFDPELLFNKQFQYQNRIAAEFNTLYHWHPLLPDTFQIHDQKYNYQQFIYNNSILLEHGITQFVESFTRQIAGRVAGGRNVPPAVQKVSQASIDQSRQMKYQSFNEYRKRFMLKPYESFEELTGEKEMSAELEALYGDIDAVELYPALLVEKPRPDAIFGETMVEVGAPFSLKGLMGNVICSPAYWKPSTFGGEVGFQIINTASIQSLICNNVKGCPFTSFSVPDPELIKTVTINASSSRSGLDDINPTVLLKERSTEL
Put plainly: COX-2 activity in vitro, recombinant human enzyme (PGE2 ELISA). The class given is biochemical. The note with it: human (h); 10 μM arachidonic acid, 10-20 min pre-incubation; read-out: COX-2 ID50. As for the experimental part:
as §1, §2, §3

T3 sequence (P23219 24-599): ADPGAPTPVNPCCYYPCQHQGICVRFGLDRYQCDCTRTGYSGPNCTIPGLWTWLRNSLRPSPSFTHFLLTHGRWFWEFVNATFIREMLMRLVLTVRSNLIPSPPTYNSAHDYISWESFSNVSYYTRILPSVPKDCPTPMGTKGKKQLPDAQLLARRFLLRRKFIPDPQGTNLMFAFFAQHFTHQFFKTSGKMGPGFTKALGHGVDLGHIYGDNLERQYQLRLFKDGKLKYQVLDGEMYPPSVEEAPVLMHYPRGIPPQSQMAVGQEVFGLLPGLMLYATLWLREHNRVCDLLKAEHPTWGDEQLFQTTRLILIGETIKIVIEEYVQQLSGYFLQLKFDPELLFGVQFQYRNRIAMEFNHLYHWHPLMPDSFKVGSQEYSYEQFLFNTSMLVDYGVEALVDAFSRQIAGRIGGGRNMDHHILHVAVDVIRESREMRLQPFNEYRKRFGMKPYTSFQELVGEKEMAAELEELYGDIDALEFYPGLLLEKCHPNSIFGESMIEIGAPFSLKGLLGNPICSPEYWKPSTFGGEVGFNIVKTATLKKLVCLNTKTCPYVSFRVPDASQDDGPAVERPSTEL

As for `CS(=O)(=O)c1ccc(-c2cc(C#N)c(-c3ccccc3)nc2-c2ccc(F)cc2)cc1` [Example 4, 6-(4-Fluorophenyl)-5-[4-(methylsulfonyl)phenyl]-2-phenyl-pyridine-3-carbonitrile], the results for the IC50 on COX-2 [1] and at COX-1 [2] were under 100 nM and over 10 µM, respectively. The “RAT PAW EDEMA % Inhibition” value in the test on carrageenan foot edema was determined as 18%.

With `COc1nc(-c2ccc(S(C)(=O)=O)cc2)c(-c2ccc(F)cc2)cc1C#N` [Example 23], the IC50 on COX-2 [1] was 300 nM; at COX-1 [2], over 100 µM.

As for `CS(=O)(=O)c1ccc(-c2cc(C#N)c(Cl)nc2-c2ccc(F)cc2)cc1` [Example 7, 2-Chloro-6-(4-fluorophenyl)-5-[4-(methylsulfonyl)phenyl]-pyridine-3-carbonitrile], the IC50 on COX-2 [1] was 100 nM; on COX-1 [2], over 100 µM.

Take `COc1nc(-c2ccc(F)cc2)c(-c2ccc(S(C)(=O)=O)cc2)cc1C#N` [Example 2, 6-(4-Fluorophenyl)-2-methoxy-5-[4-(methylsulfonyl)phenyl]-pyridine-3-carbonitrile]: the IC50 was over 100 µM on COX-1 [3] and 200 nM on COX-2 [4]. Besides, the “RAT PAW EDEMA % Inhibition” value in the test on carrageenan foot edema is reported as 16%.

With `CS(=O)(=O)c1ccc(-c2cc(C#N)cnc2-c2ccc(F)cc2)cc1` [Example 22, 6-(4-Fluorophenyl)-5-[4-(methylsulfonyl)phenyl]pyridine-3-carbonitrile], the IC50 at COX-2 [1] is 300 nM; on COX-1 [2], over 10 µM.

In the case of `CS(=O)(=O)c1ccc(-c2cc(C#N)c(Br)nc2-c2ccc(F)cc2)cc1` [Example 3, 2-Bromo-6-(4-fluorophenyl)-5-[4-(methylsulfonyl)phenyl]-pyridine-3-carbonitrile], the IC50 at COX-2 [1] was under 100 nM; at COX-1 [2], over 10 µM. Also, in the test with carrageenan foot edema, the “RAT PAW EDEMA % Inhibition” value came out at 16%.

As to `CS(=O)(=O)c1ccc(-c2cc(C(N)=O)c(Cl)nc2-c2ccc(F)cc2)cc1` [Example 20, 2-Chloro-6-(4-fluorophenyl)-5-[4-(methylsulfonyl)phenyl]pyridine-3-carboxamide], the IC50 is 26200 nM at COX-2 [1] and over 100 µM on COX-1 [2].

For `CS(=O)(=O)c1ccc(-c2cc(C(N)=O)cnc2-c2ccc(F)cc2)cc1` [Example 21, 6-(4-Fluorophenyl)-5-[4-(methylsulfonyl)phenyl]pyridine-3-carboxamide], the IC50 was 105000 nM on COX-2 [1] and over 100 µM on COX-1 [2].

With `C=CCOc1nc(-c2ccc(F)cc2)c(-c2ccc(S(C)(=O)=O)cc2)cc1C#N` [Example 17, 6-(4-Fluorophenyl)-5-[4-(methylsulfonyl)phenyl]-2-[(2-propenyl)oxy]pyridine-3-carbonitrile], the IC50 at COX-1 [3] is over 100 µM; at COX-2 [4], under 100 nM.

As for `CCCOc1nc(-c2ccc(F)cc2)c(-c2ccc(S(C)(=O)=O)cc2)cc1C#N` [Example 10, 6-(4-Fluorophenyl)-5-[4-(methylsulfonyl)phenyl]-2-propoxypyridine-3-carbonitrile], the IC50 at COX-1 [3] was over 100 µM; at COX-2 [4] it was 200 nM.
